Experimental data as given in ChEMBL document CHEMBL1137207, “Solution structure of amyloid beta-peptide (25-35) in different media” (J Med Chem, 2004).
“And” between values parts separate entries of the source, which are not always exact repeats. Equal values may be shown once. Where a SMILES comes first, the peptide text is derived from it.

Assay: Retention time of the compound
Assay type: ADME

- tR: 13.37 min and 10.93 min
SMILES: CC[C@H](C)[C@H](NC(=O)[C@H](C)NC(=O)CNC(=O)[C@H](CCCCN)NC(=O)[C@H](CC(N)=O)NC(=O)[C@H](CO)NC(=O)CN)C(=O)N[C@H](C(=O)NCC(=O)N[C@@H](CC(C)C)C(=O)N[C@@H](CCSC)C(=O)O)[C@@H](C)CC (H-GSNKGAIIGLM-OH)
